Drawing on PMC9050923, “6,N^2-Diaryl-1,3,5-triazine-2,4-diamines: synthesis, antiproliferative activity and 3D-QSAR modeling” (RSC Advances, 2020), this text covers melting point and viability for eight compounds.

In one data set the test system is MDA-MB231. Briefly: MTT assay, MDA-MB231 breast cancer cells. In kind it is cell-based. The settings on record: Homo sapiens, MDA-MB-231; 10 μM, 72 h after the treatment, MTT, mean of three independent experiments; read-out: Percentage of cell viability MDA-MB231. Summed up:
(§1)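 Cells seeded 24 h at 37 °C, 5% CO2, then treated 72 h with a concentration range; single-point screen at 10 μM gave % viability. MTT (0.5 mg/mL, 4 h), DMSO-solubilised, A570; GI50 from sigmoidal curves, mean of three experiments.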
On the technique in general: Tetrazolium assays rely on reduction of a dye to a coloured formazan, in cell work by metabolically active cells.

The test system of a further data set is MCF-7. Briefly: MTT assay, MCF-7 breast cancer cells. In kind it is cell-based. The settings on record: Homo sapiens, MCF7, 10 μM, 72 h after the treatment, mean of three independent experiments, read-out: Percentage of cell viability MCF-7. Summed up: as §1
For a further data set, the system named is SKBR-3. Description: MTT assay, SKBR-3 breast cancer cells. Format: cell-based. The settings on record: Homo sapiens, SK-BR-3; 10 μM, 72 h after the treatment, MTT, mean of three independent experiments; read-out: Percentage of cell viability SKBR-3. Summed up:
as §1

In the case of `Nc1nc(Nc2ccc(F)cc2)nc(-c2ccc(OC(F)(F)F)cc2)n1` [Compound 91, N ^2-(4-Fluorophenyl)-6-(4-(trifluoromethoxy)phenyl)-1,3,5-triazine-2,4-diamine], the melting point is 139 to 140 °C. Moreover, the viability at 10 µM with MDA-MB231 was 53%. The viability at 10 µM with MCF-7 came to 100%. Also, in the data set with SKBR-3, the viability at 10 µM amounted to 86%.

Take `COc1ccccc1Nc1nc(N)nc(-c2cccs2)n1` [Compound 122, N ^2-(2-Methoxyphenyl)-6-(thiophen-2-yl)-1,3,5-triazine-2,4-diamine]: the melting point lay in the range of 165 to 167 °C. Further, the viability at 10 µM in the data set with MDA-MB231 came to 78%. The viability at 10 µM in the data set on MCF-7 was found to be 91%. Further, the viability at 10 µM with SKBR-3 was 97%.

Consider `Nc1nc(Nc2ccc(F)cc2)nc(-c2ccc(OCc3ccccc3)cc2)n1` [Compound 111, 6-(4-(Benzyloxy)phenyl)-N^2-(4-fluorophenyl)-1,3,5-triazine-2,4-diamine], for which the melting point was in the range of 177 to 179 °C. The viability at 10 µM with MDA-MB231 is 69%. For the same compound, the viability at 10 µM with MCF-7 is 89%. For the same compound, in the data set on SKBR-3, the viability at 10 µM came to 84%.

For the compound `COc1ccc(Nc2nc(N)nc(-c3ccc(F)cc3)n2)cc1` [Compound 30, 6-(4-Fluorophenyl)-N^2-(4-methoxyphenyl)-1,3,5-triazine-2,4-diamine], the melting point lay within 158 to 160 °C. The viability at 10 µM in the data set on MDA-MB231 worked out at 74%. The viability at 10 µM in the data set with MCF-7 is 92%. In the data set with SKBR-3, the viability at 10 µM was determined as 90%.

`Nc1nc(Nc2ccccc2F)nc(-c2ccccc2)n1` [Compound 2, N ^2-(2-Fluorophenyl)-6-phenyl-1,3,5-triazine-2,4-diamine]: the melting point is 156 to 158 °C. Further, in the data set with MDA-MB231, the viability at 10 µM stood at 82%. Further, the viability at 10 µM in the data set with MCF-7 came to 99%. Besides, the viability at 10 µM with SKBR-3 was determined as 83%.

Consider `Nc1nc(Nc2ccc(F)cc2)nc(-c2ccc(C(F)(F)F)cc2)n1` [Compound 84, N ^2-(4-Fluorophenyl)-6-(4-(trifluoromethyl)phenyl)-1,3,5-triazine-2,4-diamine], for which the melting point lay within 150 to 152 °C. For the same compound, in the data set on MDA-MB231, the viability at 10 µM stood at 95%. Moreover, the viability at 10 µM in the data set with MCF-7 was 100%. The viability at 10 µM in the data set on SKBR-3 was found to be 98%.

`Nc1nc(Nc2ccc(F)cc2)nc(-c2ccccc2)n1` [Compound 3, N ^2-(4-Fluorophenyl)-6-phenyl-1,3,5-triazine-2,4-diamine]: the melting point was 172 to 174 °C. For the same compound, in the data set on MDA-MB231, the viability at 10 µM turned out to be 81%. Moreover, the viability at 10 µM with MCF-7 stood at 100%. In addition, the viability at 10 µM in the data set on SKBR-3 was 84%.

The compound `Nc1nc(Nc2ccccc2)nc(-c2ccc(Cl)cc2)n1` [Compound 34, 6-(4-Chlorophenyl)-N^2-phenyl-1,3,5-triazine-2,4-diamine] returned a melting point of 154 to 156 °C. Moreover, the viability at 10 µM in the data set with MDA-MB231 amounted to 81%. For the same compound, the viability at 10 µM in the data set on MCF-7 worked out at 100%. Also, the viability at 10 µM with SKBR-3 was 100%.

The melting point is the temperature of the solid-liquid transition. What is called viability is a per cent measure of how many cells are alive, often set against a control.
